“Also recorded” adds a separate entry of the source. *1 amine or outer side, *2 acyl side, *3 side chain or, on linkers, in order; H or OH if unused. Where a SMILES comes first, the peptide text is derived from it. Bridges are numbered along the chain shown (N, C = ends). Roman numbers before positions name the chains, in order. [ ]: non-standard residue; d: D form. Actinocin(9to1) = Cc1c2oc3c(C)ccc(C(=O)[*:1])c3nc-2c(C(=O)[*:2])c(N)c1=O; NMeV = CN[C@H](C(=O)O)C(C)C; Sar = CNCC(=O)O
Legend:
Format in all cases: cell-based, human
[1] = tested on: thymidylate synthase (TS); experiment: Down-regulation of TS in H630 cells treated with acyl-homoserine lactones (Western blotting); details: overnight (approximately 16 hours)
Text: FIG. 6. A representation of the ability of acyl homoserine lactones to down-regulate TS in H630 cells.
The signaling molecules produced by the rTS signaling pathway cause a decrease in the amount of TS found in cells. These signaling molecules can simulate the effects of the compound 3-oxo-hexanoyl homoserine lactone in activating the receptor for this compound when it is present in a recombinant bacteria. […] This hypothesis was validated by the results of an experiment portrayed in FIG. 6. Accordingly, the down-regulation of TS in H630 (human colon cancer) cells treated with acyl-homoserine lactones was tested. Cells growing in RPMI 1640 culture medium, supplemented with 10% dialyzed fetal bovine serum at 37° C. in an atmosphere of 95:5 air:CO2. The compounds with the structures shown were added to the cells and allowed to incubate overnight (approximately 16 hours). The cells were extracted and TS measured by Western blotting as described. The compounds from top to bottom are: (1) 3-hydroxy butanoyl homoserine lactone, (2) butanoyl homoserine lactone; (3) 3-oxo-hexanoyl homoserine lactone; (4) d, 1-hexanoyl homoserine lactone, and (5) 1-homoserine lactone. Tubulin is shown as a loading standard.

[2] = tested on: thymidylate synthase (TS); experiment: Luciferase induction in H630 cells containing pG3E1-2TBE-Neo by acyl homoserine lactone; details: 18 h
Text: FIG. 7. Induction of luciferase as a function of 3-oxo-6-hexanoyl-homoserine lactone concentrations. H630 cells containing pG3E1-2TBE-Neo were exposed to the indicated concentrations of 3-oxo-6-hexanoyl homoserine lactone for 18 hrs then analyzed for luciferase activity.
FIG. 8. Comparison of 5-fluorouracil (5-FU) and 3-oxo-hexanoyl-homoserine lactone on induction of luciferase. H630 cells containing pG3E1-2TBE-Neo were exposed to the indicated concentrations of each compound for 18 hrs and analyzed for luciferase activity.
H630 cells containing pG3E1-2TBE-Neo were exposed to the indicated concentrations of 3-oxo-6-hexanoyl homoserine lactone for 18 h then analyzed for luciferase activity (FIG. 7).

[3] = tested on: thymidylate synthase (TS); experiment: Luciferase assay in stably transfected H630-C6 cells (pG3E1-2TBE-Neo); details: H630-C6 cells
Procedure: FIGS. 3a-3j. RLU production in H630-C6 cells in response to TS inhibitors. H630-C6 cells were evaluated for luciferase activity in response to treatment with the indicated compounds. The cells were exposed to the compounds at the indicated concentrations for 18 hr and luciferase assays were then performed according to the manufacturer's instructions. The mean values of triplicates or quadruplicates are shown along with the standard derivations.
This example describes the stable transfection of cells with the DNA construct of the present invention. To facilitate selection of stable transformants, we added a neomycin-resistance gene to the pG3E1-2TBE (FIG. 1) to generate a new plasmid termed pG3E1-2TBE-Neo as follows. For stable transfection, pG3E1-2TBE-Neo was linearized at the ampicillin resistance gene with Ase I and was introduced into H630 cells as described above. At 24 hrs post-transfection, the cells were exposed to 400 μg/ml of G418 for two weeks. Individual clones were picked at that time and screened for their ability to induce luciferase in response to treatment with 5-FU, a known TS inhibitor. Following selection with G418 and evaluation for changes in luciferase activity after exposure of the cells to 5-FU, the cloned subline H630/pG3E1-2TBE-Neo-L1-2-C6 (H630-C6) was chosen for further study.
The stably transfected H630-C6 cell line was maintained in RPMI 1640 plus 10% dialyzed FBS and 400 μg/ml of geneticin (G418). For luciferase assays, 2×10^4 cells were seeded in each well of a 24-well plate in RPMI 1640 medium plus 10% FBS without G418 and were allowed to attach at least six hr, followed by drug exposure overnight (approximately 18 hr). The cells were then washed with PBS (137 mM NaCl, 2.7 mM KCl, 4.3 mM Na2HPO4, 1.4 mM KH2PO4, pH 7.4), lysed with Passive Lysis Buffer (Promega, Madison) and assayed for luciferase activity using the Luciferase Assay System (Promega, Madison, Wis.) according to the manufacturer's instructions. Relative light units (RLU) were measured with a Lumat LB 9501 luminometer (EG & G Berthold, Wildbad, Germany).
To test H630-C6 as a tool to identify TS modulators three different classes of compounds, i.e., specific or predominantly specific TS inhibitors, agents that inhibit folate pathways or inhibit TS as well as having other targets, and agents that act through TS unrelated sites of action were evaluated for their ability to induce changes in luciferase activity.

[4] = tested on: thymidylate synthase (TS); experiment: Evaluation of TS expression by Western blotting in H630-C6 cells
Procedure: FIGS. 4a and 4b. Evaluation of TS expression by Western blotting. […] The cells were harvested for Western blots.
This example describes the relationship between TS levels and luciferase production by various known TS inhibitors. Western blotting was performed as previously described (Dolnick and Black, 1996). Briefly, H630-C6 cells were washed with PBS and extracted with RIPA buffer. 10 μg of total protein was resolved by electrophoresis in a 10% SDS-PAGE and was blotted onto a PVDF membrane (Immobilon-P, Millipore, Bedford, Mass.). The membrane was hybridized with rabbit polyclonal antibody against TS (a gift from Dr. Edward Chu, VA Cancer Center, Yale University, West Haven, Conn.) diluted in SuperBlock Blocking Buffer (Pierce, Rockford, Ill.) plus 0.25% Tween 20 for one hour and hybridized with HRP-linked anti-rabbit secondary antibody (Jackson Laboratories) for an additional one hour. The membrane was detected with SuperSignal West Dura Extended Duration Substrate (Pierce, Rockford, Ill.) and was visualized by exposing the blot to Kodak XAR-5 film. […] The resulting signal was detected as described above.
The induction of luciferase activity depends upon the ability to reduce the amount of endogenous TS bound to the TBEs in the recombinant luciferase transcripts. Dissociation of TS from the luciferase reporter mRNA is expected to be accompanied by the removal of TS from TBEs located in other mRNAs as well, such as endogenous TS mRNA. Therefore, an increase in TS is expected to accompany the increase in luciferase. To verify whether a translational mechanism is involved we evaluated the levels of TS from cells treated with the compounds described above by Western blotting.

TS mRNA = experiment: Evaluation of TS mRNA expression by RT-PCR in H630-C6 cells; details: 18 hr exposure
Procedure: FIGS. 5a and 5b. Evaluation of TS mRNA expression by RT-PCR. H630-C6 cells were exposed to the indicated compounds for 18 hr and total RNA was obtained for RT-PCR. Results are shown for 35 cycles of amplification. […] Similar results were obtained at lower cycles (data not shown).
This example describes the TS mRNA levels in the presence of various TS inhibitors. RNA was prepared using an RNAqueous kit (Ambion, Austin, Tex.). Reverse transcription was done using a Cells-to-cDNA kit (Ambion, Austin, Tex.). Polymerase chain reaction (PCR) was performed as described previously (Dolnick et al., 1992). Primers used for TS mRNA are 5′-TTTGGACAGCCTGGGATTCTC-3′ (Sense—SEQ ID NO:6) and 5′-AAAGCACCCTAAACAGCCATT-3′ (antisense—SEQ ID NO:7), generated a 600-bp PCR product. Primers used for β-actin are 5′-CAGCTCACCATGGATGATGATA-3′ (sense—SEQ ID NO:8) and 5′-CCA GAC GCA GGA TGG CAT-3′ (antisense—SEQ ID NO:9), generated a 543-bp PCR product. The PCR cycling condition used was: 95° C. for 30 seconds, 60° C. for 30 seconds, 72° C. for 1 minute, repeated for 25, 30 and 35 cycles (for TS) or 20, 25 and 30 cycles (for β-actin). Product formation was evaluated by ethidium bromide staining and was resolved by electrophoresis in 1.5% agarose gels.

With CCCC(=O)CC(=O)N[C@H]1CCOC1=O [3-oxo-hexanoyl homoserine lactone] the “down-regulation of TS (Western blotting), in words” value [1] was “most active of all the compounds shown” and the “luciferase activity as a function of concentration” value [2] was “increased the luciferase activity”.
Cc1c2oc3c(C)ccc(C(=O)N[C@@H]4C(=O)N[C@H](C(C)C)C(=O)N5CCC[C@H]5C(=O)N(C)CC(=O)N(C)[C@@H](C(C)C)C(=O)O[C@@H]4C)c3nc-2c(C(=O)N[C@@H]2C(=O)N[C@H](C(C)C)C(=O)N3CCC[C@H]3C(=O)N(C)CC(=O)N(C)[C@@H](C(C)C)C(=O)O[C@@H]2C)c(N)c1=O [Act D, actinomycin D] (I: T[dV]P[Sar][NMeV] / II: T[dV]P[Sar][NMeV]; ester I:1-I:C, II:1-II:C; linker I:N-II:N via Actinocin(9to1)) was tested, and the increase of luciferase ([3]; 50 μM, 18 hr) was “up to 3.5 fold”, the “change in luciferase activity (RLU), in words” value ([3]; 18 hr exposure) was “concentration-dependent increase of RLU” and the “TS protein level by Western blotting” value ([4]; H630-C6 cells, 18 hr treatment) was “no increase of TS protein; also recorded: did not induce TS levels”. For the same molecule, the “TS levels as a function of time (time course)” value ([4]; by 24 hr, data not shown) was “dropped” and the “TS mRNA level by RT-PCR” value (TS mRNA) was “not altered”.

From US20040161781A1, “Compositions and methods for identifying thymidylate synthase modulators” (priority 2002, published 2004)
